According to PubChem BioAssay (NCI):
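Dose response: 5 concentrations. Exposure: 48 h. Format: 96-well plates. Endpoint: linear interpolation; highest concentration if not reached. At the GI50, growth is halved. At the TGI there is no net growth.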

What was measured:
Assay in all cases: NCI-60 cell line screen, 48 h
786-0 renal = system: 786-0 renal
A498 renal = system: A498 renal
A549 NSCLC = system: A549 NSCLC
ACHN renal = system: ACHN renal
BT-549 breast = system: BT-549 breast
CAKI-1 renal = system: CAKI-1 renal
CCRF-CEM leukemia = system: CCRF-CEM leukemia
COLO 205 colon = system: COLO 205 colon
DU-145 prostate = system: DU-145 prostate
EKVX NSCLC = system: EKVX NSCLC
HCC-2998 colon = system: HCC-2998 colon
HCT-116 colon = system: HCT-116 colon
HCT-15 colon = system: HCT-15 colon
HL-60(TB) leukemia = system: HL-60(TB) leukemia
HOP-62 NSCLC = system: HOP-62 NSCLC
HOP-92 NSCLC = system: HOP-92 NSCLC
HS 578T breast = system: HS 578T breast
HT29 colon = system: HT29 colon
IGROV1 ovarian = system: IGROV1 ovarian
K-562 leukemia = system: K-562 leukemia
KM12 colon = system: KM12 colon
LOX IMVI melanoma = system: LOX IMVI melanoma
M14 melanoma = system: M14 melanoma
MALME-3M melanoma = system: MALME-3M melanoma
MCF7 breast = system: MCF7 breast
MDA-MB-231 breast = system: MDA-MB-231 breast
MDA-MB-435 = system: MDA-MB-435
MDA-MB-468 breast = system: MDA-MB-468 breast
MOLT-4 leukemia = system: MOLT-4 leukemia
NCI-H226 lung = system: NCI-H226 lung
NCI-H23 lung = system: NCI-H23 lung
NCI-H460 lung = system: NCI-H460 lung
NCI-H522 lung = system: NCI-H522 lung
NCI/ADR-RES ovarian = system: NCI/ADR-RES ovarian
OVCAR-3 ovarian = system: OVCAR-3 ovarian
OVCAR-4 ovarian = system: OVCAR-4 ovarian
OVCAR-5 ovarian = system: OVCAR-5 ovarian
OVCAR-8 ovarian = system: OVCAR-8 ovarian
PC-3 prostate = system: PC-3 prostate
RPMI-8226 leukemia = system: RPMI-8226 leukemia
RXF 393 renal = system: RXF 393 renal
SF-268 CNS = system: SF-268 CNS
SF-295 CNS = system: SF-295 CNS
SF-539 CNS = system: SF-539 CNS
SK-MEL-2 melanoma = system: SK-MEL-2 melanoma
SK-MEL-28 melanoma = system: SK-MEL-28 melanoma
SK-MEL-5 melanoma = system: SK-MEL-5 melanoma
SK-OV-3 ovarian = system: SK-OV-3 ovarian
SN12C renal = system: SN12C renal
SNB-19 CNS = system: SNB-19 CNS
SNB-75 CNS = system: SNB-75 CNS
SR leukemia = system: SR leukemia
SW-620 colon = system: SW-620 colon
T-47D breast = system: T-47D breast
TK-10 renal = system: TK-10 renal
U251 CNS = system: U251 CNS
UACC-257 melanoma = system: UACC-257 melanoma
UACC-62 melanoma = system: UACC-62 melanoma
UO-31 renal = system: UO-31 renal

Clc1ccc(-c2nc3ccc(-c4nnc(SCc5ccccc5)o4)cc3[nH]2)cc1
GI50 (786-0 renal): 4.03 µM | TGI (786-0 renal): > 100 µM | GI50 (A498 renal): 18.2 µM | TGI (A498 renal): 42.5 µM | GI50 (A549 NSCLC): 3.78 µM | TGI (A549 NSCLC): > 100 µM | GI50 (ACHN renal): 14.5 µM | TGI (ACHN renal): > 100 µM | GI50 (BT-549 breast): 24 µM | TGI (BT-549 breast): > 100 µM | GI50 (CAKI-1 renal): 16.1 µM | TGI (CAKI-1 renal): 54.7 µM | GI50 (CCRF-CEM leukemia): 4.91 µM | TGI (CCRF-CEM leukemia): > 100 µM | GI50 (COLO 205 colon): 15.5 µM | TGI (COLO 205 colon): > 100 µM | GI50 (DU-145 prostate): 57 µM | TGI (DU-145 prostate): > 100 µM | GI50 (EKVX NSCLC): 4.18 µM | TGI (EKVX NSCLC): 39 µM | GI50 (HCC-2998 colon): 19.9 µM | TGI (HCC-2998 colon): > 100 µM | GI50 (HCT-116 colon): 3.25 µM | TGI (HCT-116 colon): > 100 µM | GI50 (HCT-15 colon): 3.75 µM | TGI (HCT-15 colon): 27.4 µM | GI50 (HL-60(TB) leukemia): 26.2 µM | TGI (HL-60(TB) leukemia): > 100 µM | GI50 (HOP-62 NSCLC): 16.4 µM | TGI (HOP-62 NSCLC): 86.6 µM | GI50 (HOP-92 NSCLC): 11.5 µM | TGI (HOP-92 NSCLC): 48.3 µM | GI50 (HS 578T breast): 12.2 µM | TGI (HS 578T breast): > 100 µM | GI50 (HT29 colon): 16.9 µM | TGI (HT29 colon): > 100 µM | GI50 (IGROV1 ovarian): 7.37 µM | TGI (IGROV1 ovarian): > 100 µM | GI50 (K-562 leukemia): 4.78 µM | TGI (K-562 leukemia): > 100 µM | GI50 (KM12 colon): 17.6 µM | TGI (KM12 colon): > 100 µM | GI50 (LOX IMVI melanoma): 4.95 µM | TGI (LOX IMVI melanoma): 40.7 µM | GI50 (M14 melanoma): 25.5 µM | TGI (M14 melanoma): > 100 µM | GI50 (MALME-3M melanoma): 16.1 µM | TGI (MALME-3M melanoma): 83.2 µM | GI50 (MCF7 breast): 3.08 µM | TGI (MCF7 breast): > 100 µM | GI50 (MDA-MB-231 breast): 5.36 µM | TGI (MDA-MB-231 breast): 36.1 µM | GI50 (MDA-MB-435): 8.65 µM | TGI (MDA-MB-435): > 100 µM | GI50 (MDA-MB-468 breast): 3.32 µM | TGI (MDA-MB-468 breast): 15.3 µM | GI50 (MOLT-4 leukemia): 4.71 µM | TGI (MOLT-4 leukemia): > 100 µM | GI50 (NCI-H226 lung): 7.54 µM | TGI (NCI-H226 lung): 36 µM | GI50 (NCI-H23 lung): 6.21 µM | TGI (NCI-H23 lung): 74.2 µM | GI50 (NCI-H460 lung): 5.37 µM | TGI (NCI-H460 lung): > 100 µM | GI50 (NCI-H522 lung): 2.83 µM | TGI (NCI-H522 lung): 10.3 µM | GI50 (NCI/ADR-RES ovarian): 4.09 µM | TGI (NCI/ADR-RES ovarian): 21.5 µM | GI50 (OVCAR-3 ovarian): 2.7 µM | TGI (OVCAR-3 ovarian): 7.61 µM | GI50 (OVCAR-4 ovarian): 3.87 µM | TGI (OVCAR-4 ovarian): 21.9 µM | GI50 (OVCAR-5 ovarian): 5.87 µM | TGI (OVCAR-5 ovarian): 97.1 µM | GI50 (OVCAR-8 ovarian): 6.49 µM | TGI (OVCAR-8 ovarian): 27.5 µM | GI50 (PC-3 prostate): 6.21 µM | TGI (PC-3 prostate): > 100 µM | GI50 (RPMI-8226 leukemia): 8.07 µM | TGI (RPMI-8226 leukemia): > 100 µM | GI50 (RXF 393 renal): 3.58 µM | TGI (RXF 393 renal): 48.6 µM | GI50 (SF-268 CNS): 7.59 µM | TGI (SF-268 CNS): > 100 µM | GI50 (SF-295 CNS): 5.41 µM | TGI (SF-295 CNS): 52.3 µM | GI50 (SF-539 CNS): 2.98 µM | TGI (SF-539 CNS): 10.2 µM | GI50 (SK-MEL-2 melanoma): 16.2 µM | TGI (SK-MEL-2 melanoma): > 100 µM | GI50 (SK-MEL-28 melanoma): 36.9 µM | TGI (SK-MEL-28 melanoma): > 100 µM | GI50 (SK-MEL-5 melanoma): 4.87 µM | TGI (SK-MEL-5 melanoma): 33.4 µM | GI50 (SK-OV-3 ovarian): 23 µM | TGI (SK-OV-3 ovarian): > 100 µM | GI50 (SN12C renal): 1.87 µM | TGI (SN12C renal): 4.05 µM | GI50 (SNB-19 CNS): 5.85 µM | TGI (SNB-19 CNS): > 100 µM | GI50 (SNB-75 CNS): 2.13 µM | TGI (SNB-75 CNS): 22.9 µM | GI50 (SR leukemia): 5.86 µM | TGI (SR leukemia): > 100 µM | GI50 (SW-620 colon): 3.41 µM | TGI (SW-620 colon): 43.2 µM | GI50 (T-47D breast): 3.05 µM | TGI (T-47D breast): 41.3 µM | GI50 (TK-10 renal): > 100 µM | TGI (TK-10 renal): > 100 µM | GI50 (U251 CNS): 2.69 µM | TGI (U251 CNS): 6.8 µM | GI50 (UACC-257 melanoma): 22.8 µM | TGI (UACC-257 melanoma): > 100 µM | GI50 (UACC-62 melanoma): 13.8 µM | TGI (UACC-62 melanoma): > 100 µM | GI50 (UO-31 renal): 9.18 µM | TGI (UO-31 renal): > 100 µM
